Assay results: ChEMBL document CHEMBL1201861, “Genomics of Drug Sensitity in Cancer screening data, Wellcome Trust Sanger Institute”

Tests used:
Assay in all cases: cells
[1] = test system: HCT-15; assay type: functional, cell-based; conditions: Homo sapiens;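 also: cell viability readout, IC50 reflecting suppression of HCT-15 cell growth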
Description: SANGER: Inhibition of human HCT-15 cell growth in a cell viability assay.

[2] = test system: NCI-H2405; assay type: functional, cell-based; conditions: Homo sapiens;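 also: growth inhibition of the human cell line, read out with a cell viability assay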
Description: SANGER: Inhibition of human NCI-H2405 cell growth in a cell viability assay.

[3] = test system: HCC1395; assay type: functional, cell-based; conditions: Homo sapiens;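 also: growth inhibition of HCC1395 cells, read out by a cell viability assay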
Description: SANGER: Inhibition of human HCC1395 cell growth in a cell viability assay.

[4] = test system: HGC-27; assay type: functional, cell-based; conditions: Homo sapiens;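 also: growth inhibition of human HGC-27 cells, read out in a cell viability assay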
Description: SANGER: Inhibition of human HGC-27 cell growth in a cell viability assay.

[5] = test system: GAMG; assay type: functional, cell-based; conditions: Homo sapiens;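 also: cell growth inhibition measured by a viability assay in the GAMG human cell line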
Description: SANGER: Inhibition of human GAMG cell growth in a cell viability assay.

[6] = test system: HuCCT-1; assay type: functional, cell-based, HuCCT1; conditions: Homo sapiens;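 also: growth inhibition of HuCCT-1 cells, read out by a cell viability assay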
Description: SANGER: Inhibition of human HuCCT1 cell growth in a cell viability assay.

[7] = test system: LCLC-103H cell line; assay type: functional, cell-based; conditions: Homo sapiens
Description: SANGER: Inhibition of human LCLC-103H cell growth in a cell viability assay.

[8] = test system: MKN-1; assay type: functional, cell-based; conditions: Homo sapiens;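 also: growth inhibition of human MKN1 cells, read out by a cell viability measurement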
Description: SANGER: Inhibition of human MKN1 cell growth in a cell viability assay.

[9] = test system: NCI-H1437; assay type: functional, cell-based; conditions: Homo sapiens;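 also: growth inhibition of human NCI-H1437 cells, read out by a cell viability assay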
Description: SANGER: Inhibition of human NCI-H1437 cell growth in a cell viability assay.

[10] = test system: SW1710; assay type: functional, cell-based; conditions: Homo sapiens;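 also: growth inhibition of SW1710 cells, determined with a cell viability assay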
Description: SANGER: Inhibition of human SW1710 cell growth in a cell viability assay.

[11] = test system: NCI-H510A; assay type: functional, cell-based, Homo sapiens; conditions: Homo sapiens, NCI-H510A;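 also: growth inhibition of NCI-H510A cells, read out with a cell viability assay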
Description: SANGER: Inhibition of human NCI-H510A cell growth in a cell viability assay.

[12] = test system: SW1463; assay type: functional, cell-based; conditions: Homo sapiens;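 also: growth inhibition of SW1463 cells, determined with a cell viability assay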
Description: SANGER: Inhibition of human SW1463 cell growth in a cell viability assay.

[13] = test system: RD; assay type: functional, cell-based; conditions: Homo sapiens
Description: SANGER: Inhibition of human RD cell growth in a cell viability assay.

[14] = test system: T-24; assay type: functional, cell-based; conditions: Homo sapiens;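 also: growth inhibition of T-24 cells, read out with a cell viability assay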
Description: SANGER: Inhibition of human T-24 cell growth in a cell viability assay.

[15] = test system: HTC-C3; assay type: functional, cell-based; conditions: Homo sapiens;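 also: inhibition of cell growth, read out with a cell viability assay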
Description: SANGER: Inhibition of human HTC-C3 cell growth in a cell viability assay.

[16] = test system: NCI-H630; assay type: functional, cell-based; conditions: Homo sapiens;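 also: growth inhibition of NCI-H630 cells, read out with a cell viability assay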
Description: SANGER: Inhibition of human NCI-H630 cell growth in a cell viability assay.

[17] = test system: NCI-H810; assay type: functional, cell-based; conditions: Homo sapiens;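 also: IC50 reflects inhibition of cancer cell line growth, read out with a cell viability assay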
Description: SANGER: Inhibition of human NCI-H810 cell growth in a cell viability assay.

[18] = test system: HCC1954; assay type: functional, cell-based; conditions: Homo sapiens;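 also: growth inhibition of human HCC1954 cells, read out with a cell viability assay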
Description: SANGER: Inhibition of human HCC1954 cell growth in a cell viability assay.

[19] = test system: SW1990; assay type: functional, cell-based; conditions: Homo sapiens;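 also: cell growth inhibition determined with a viability assay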
Description: SANGER: Inhibition of human SW1990 cell growth in a cell viability assay.

[20] = test system: HLE; assay type: functional, cell-based; conditions: Homo sapiens;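 also: growth inhibition of human HLE cells, read out by a cell viability assay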
Description: SANGER: Inhibition of human HLE cell growth in a cell viability assay.

[21] = test system: EFO-27; assay type: functional, cell-based; conditions: Homo sapiens;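 also: growth inhibition of EFO-27 cells, read out with a cell viability assay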
Description: SANGER: Inhibition of human EFO-27 cell growth in a cell viability assay.

[22] = test system: CAL-39; assay type: functional, cell-based; conditions: Homo sapiens;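 also: cell viability assay measuring growth inhibition of CAL-39 cells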
Description: SANGER: Inhibition of human CAL-39 cell growth in a cell viability assay.

[23] = test system: U-251; assay type: functional, cell-based; conditions: Homo sapiens;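 also: growth inhibition of human U-251 cells, read out through a cell viability assay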
Description: SANGER: Inhibition of human U251 cell growth in a cell viability assay.

[24] = test system: C3A; assay type: functional, cell-based; conditions: Homo sapiens;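 also: growth inhibition of C3A human cells, quantified with a cell viability readout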
Description: SANGER: Inhibition of human C3A cell growth in a cell viability assay.

[25] = test system: CAMA-1; assay type: functional, cell-based; conditions: Homo sapiens;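 also: growth inhibition of CAMA-1 cells, read out with a cell viability assay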
Description: SANGER: Inhibition of human CAMA-1 cell growth in a cell viability assay.

[26] = test system: RMG-I; assay type: functional, cell-based; conditions: Homo sapiens;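 also: growth inhibition of human RMG-I cells, read out with a cell viability assay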
Description: SANGER: Inhibition of human RMG-I cell growth in a cell viability assay.

[27] = test system: MDA-MB-157; assay type: functional, cell-based; conditions: Homo sapiens
Description: SANGER: Inhibition of human MDA-MB-157 cell growth in a cell viability assay.

[28] = test system: FaDu; assay type: functional, cell-based; conditions: Homo sapiens;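 also: cell viability readout of growth inhibition in FaDu cells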
Description: SANGER: Inhibition of human FADU cell growth in a cell viability assay.

[29] = test system: NY; assay type: functional, cell-based; conditions: Homo sapiens
Description: SANGER: Inhibition of human NY cell growth in a cell viability assay.

[30] = test system: MC-IXC; assay type: functional, cell-based; conditions: Homo sapiens;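 also: growth inhibition of MC-IXC cells, read out with a cell viability assay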
Description: SANGER: Inhibition of human MC-IXC cell growth in a cell viability assay.

[31] = test system: SW626; assay type: functional, cell-based; conditions: Homo sapiens;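 also: growth inhibition of SW626 cells, measured with a cell viability assay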
Description: SANGER: Inhibition of human SW626 cell growth in a cell viability assay.

[32] = test system: A204; assay type: functional, cell-based; conditions: Homo sapiens;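 also: growth inhibition of human A204 cells, read out with a cell viability assay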
Description: SANGER: Inhibition of human A204 cell growth in a cell viability assay.

[33] = test system: Calu-3; assay type: functional, cell-based; conditions: Homo sapiens;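 also: growth inhibition of human Calu-3 cells, determined with a cell viability assay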
Description: SANGER: Inhibition of human Calu-3 cell growth in a cell viability assay.

[34] = test system: SNU-449; assay type: functional, cell-based; conditions: Homo sapiens
Description: SANGER: Inhibition of human SNU-449 cell growth in a cell viability assay.

[35] = test system: MKN-45; assay type: functional, cell-based; conditions: Homo sapiens;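 also: growth inhibition of human MKN-45 cells, measured with a cell viability assay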
Description: SANGER: Inhibition of human MKN45 cell growth in a cell viability assay.

[36] = test system: UO-31; assay type: functional, cell-based; conditions: Homo sapiens;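 also: cell viability assay measuring inhibition of cell growth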
Description: SANGER: Inhibition of human U031 cell growth in a cell viability assay.

[37] = test system: SW780; assay type: functional, cell-based; conditions: Homo sapiens;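 also: growth inhibition of the cells, read out with a cell viability assay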
Description: SANGER: Inhibition of human SW780 cell growth in a cell viability assay.

[38] = test system: NCI-H1703; assay type: functional, cell-based; conditions: Homo sapiens;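 also: growth inhibition of NCI-H1703 cells, read out via a cell viability assay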
Description: SANGER: Inhibition of human NCI-H1703 cell growth in a cell viability assay.

[39] = test system: HN; assay type: functional, cell-based; conditions: Homo sapiens
Description: SANGER: Inhibition of human HN cell growth in a cell viability assay.

[40] = test system: HuP-T3; assay type: functional, cell-based; conditions: Homo sapiens;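 also: HuP-T3 cell growth inhibition, read out with a cell viability assay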
Description: SANGER: Inhibition of human HuP-T3 cell growth in a cell viability assay.

[41] = test system: A-427; assay type: functional, cell-based; conditions: Homo sapiens;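 also: growth inhibition of human A-427 cells, read out by a cell viability assay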
Description: SANGER: Inhibition of human A427 cell growth in a cell viability assay.

[42] = test system: KYSE-270; assay type: functional, cell-based; conditions: Homo sapiens;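 also: cell growth inhibition measured with a viability assay in the human KYSE-270 line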
Description: SANGER: Inhibition of human KYSE-270 cell growth in a cell viability assay.

[43] = test system: MEL-HO; assay type: functional, cell-based; conditions: Homo sapiens
Description: SANGER: Inhibition of human MEL-HO cell growth in a cell viability assay.

[44] = test system: CAPAN-1; assay type: functional, cell-based; conditions: Homo sapiens;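 also: growth suppression of CAPAN-1 cells, read out by a cell viability assay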
Description: SANGER: Inhibition of human CAPAN-1 cell growth in a cell viability assay.

Measured: IC50

NC(=O)c1ccc(N(C(N)=O)c2c(F)cccc2F)nc1-c1ccc(F)cc1F [VX-702]
> 2 µM: [1] | [2] | [3] | [4] | [5] | [6] | [7] | [8] | [9] | [10] | [11] | [12] | [13] | [14] | [15] | [16] | [17] | [18] | [19] | [20] | [21] | [22] | [23] | [24] | [25] | [26] | [27] | [28] | [29] | [30] | [31] | [32] | [33] | [34] | [35] | [36] | [37] | [38] | [39] | [40] | [41] | [42] | [43] | [44]
